Data: patent US8207142B2, “Inhibitor of DNA methylation” (priority 2001, dated 2012)
Where “and” joins values, the source holds several entries; their conditions need not be identical. Equal values may be shown once.

Assays:
T24 cells = assay: Colony-formation assay (decrease in plating efficiency) in T24 cells; assay type: cell-based, human; conditions: 3 μM, 24 hrs
Experimental: (§1) The percentage cell survival was assessed by dividing the mean colony number on the treated plates divided by the mean colony number on the untreated plates ×100.

[1] = test system: p16 gene expression in T24 cells; assay: RT-PCR analysis of p16 expression in T24 cells; assay type: cell-based, human; conditions: 3 μM
Experimental: The T24 cell line was obtained from the American Type Culture Collection (Rockville, Md.) and cultured in DMEM supplemented with 10% heat-inactivated fetal calf serum and 100 U/ml penicillin-streptomycin. Cultures were grown in a humidified incubator at 37° C. in an atmosphere of 5% CO2 in air.
Cells were plated (3×10^5 cells/100-mm dish) and treated 24 hours later with the indicated concentrations of compounds. The medium was either changed 24 hours or 48 hours after drug treatment.
DNA and RNA were isolated three days after treatment using the NucleoBond RNA/DNA Midi Kit (Clontech Laboratories, Inc., Palo Alto, Calif.).
Total RNA (˜10 μg) was reverse-transcribed using the following reagents: 100 units RNAsin (Promega Corp., Madison, Wis.), 0.1 M DTT (Life Technologies, Inc.), 1000 units of MMLV-RT (Life Technologies, Inc.), 1 mM deoxynucleotide triphosphates (Boehringer Mannheim, Germany), 75 μg/ml BSA, 1× MMLV-RT buffer (Life Technologies, Inc.), and 0.025 ODU Random Hexamers (Amersham-Pharmacia Biotech, Piscataway, N.J.). The reaction mixture was incubated for 10 minutes at 25° C., 45 minutes at 42° C., 3 minutes at 90° C., and chilled for 5 minutes at 4° C., during which time 1.25 μl of MMLV-RT (200 U/μl) were added and the sample then incubated for 45 minutes at 42° C., 10 minutes at 75° C., and stored at −20° C.
cDNA was amplified with primers specific for either p16 or GAPDH. Briefly, PCR reactions were performed in 25-μl volumes at 94° C. for 3 minutes, 28 cycles at 94° C. for 1 minute, 56° C. for 30 seconds, 72° C. for 40 seconds, and a final extension step at 72° C. for 5 min (p16 amplification), and 94° C. for 1 minute, 19 cycles at 94° C. for 1 minute, 58° C. for 30 seconds, 72° C. for 45 seconds, and a final extension step at 72° C. for 2 minutes (GAPDH amplification).
PCR amplifications were performed with cDNA template concentration equivalent to 100 ng of RNA in 10% DMSO. All reactions were analyzed in the linear range of amplification. PCR products were resolved on 2% agarose gels and subsequently transferred to a nylon membrane (Zetaprobe; Bio-Rad, Richmond, Calif.) under alkaline conditions. All blots were hybridized with a γ-^32P-labeled internal oligonucleotide probe, using protocols previously described (Xiong and Laird, Nuc. Acids Res. 25:2532-2534, 1997).
Since 5-Aza-CdR has been shown previously to induce p16 expression in a dose-dependent manner (Bender et al., Cancer Res. 58:95-101, 1998), the two ribonucleoside analogs 5-Aza-CR and Zeb were examined to determine their abilities to induce p16 expression (FIG. 8). Because Zeb is stable in aqueous solution, the effect of prolonging Zeb treatment on p16 expression was tested by treating these cells with different concentrations of Zeb for either 24 hours or 48 hours. RT-PCR was then performed to determine whether p16 gene was induced by drug treatment.

10T1/2 cells [2] = assay: Colony-formation assay (plating efficiency) in 10T1/2 cells; assay type: cell-based, mouse
Experimental: as §1

p16 exon 2 = assay: Ms-SNuPE quantitation of DNA methylation in T24 cells, p16 exon 2; assay type: cell-based, human; conditions: 3 μM, 24 hrs
Experimental: (§2) The average methylation at defined CpG sites was quantitated using a Ms-SNuPE assay, as described by Gonzalgo and Jones (Nucleic Acids Res. 25:2529-2531, 1997) and U.S. Pat. No. 6,251,594. Briefly, genomic DNA (˜4 μg) was digested overnight with 4 units of EcoRI (Boehringer Mannheim) (p16 promoter/exon 1 and p16 exon 2; FIG. 9A) or with 4 units of RsaI (Boehringer Mannheim) (P3; FIG. 9B) to cut outside the region of interest.
(§3) After standard treatment with sodium bisulfite, a PCR product of the region was generated as template for top-strand methylation analysis. The sequences of the primers used for bisulfite-treated DNA amplification were as follows: […]
p16 exon 2: 94° C. for 3 minutes, 94° C. for 1 minute, 62° C. for 45 seconds, and 72° C. for 45 seconds for 40 cycles, with a final extension step at 72° C. for 10 minutes.
(§4) Duplicates of 4 μl of template were then added to 6 μl of mixture consisting of 1× PCR buffer, 1 μM final concentration primers, 1 μCi of [^32P]dCTP or dTTP, and 1 unit 1:1 Taq/TaqStart antibody (Clontech, Palo Alto, Calif.). Single nucleotide extension involved incubation at 95° C. for 1 minute, then 50° C. for 2 minutes, and finally 72° C. for 1 minute (p16 promoter/exon1 and P16 exon 2) and 95° C. for 1 minute, then 46° C. for 30 seconds, and finally 72° C. for 20 seconds (P3). The sequences for SNuPE primers were as follows: […]
(§5) After briefly spinning down the tubes, 4 μl of stop solution were added to the 10-μl reaction volume, and the samples were boiled for 5 minutes at 95° C. before loading 1.5 μl onto a 15% denaturing polyacrylamide gel (7 M urea). The gel was run at 90 W for 1.5 hours and then dried at 80° C. for 40 minutes. The gel was exposed to a phosphorimaging cassette for quantitation of the ratio of [^32P]dCTP versus [^32P]dTTP incorporation, and the quantitation of the percent methylation was averaged from three separate CpG sites. The gel was then exposed to BioMax MR film (Kodak) to record experimental results.

p16 promoter = assay: Ms-SNuPE quantitation of DNA methylation in T24 cells, p16 promoter; assay type: cell-based, human; conditions: 3 μM, 24 hrs; control 96
Experimental: as §2, §3
p16 promoter/exon 1: 94° C. for 3 minutes, 94° C. for 45 seconds, 67° C. for 45 seconds, and 72° C. for 45 seconds for 40 cycles, with a final extension step at 72° C. for 10 minutes.
as §4, §5

10T1/2 cells [3] = assay: Induction of a myogenic phenotype (myotube formation) in 10T1/2 cells; assay type: cell-based, mouse; parameters: key to Muscle Formation: + representing minimal muscle formation; scored for muscle cells 9-10 days later as + to +++; +++ representing maximal muscle formation
Experimental: Cells were plated (3×10^5 cells/100-mm dish) and treated 24 hours later with the indicated concentrations of compounds. The medium was either changed 24 hours or 48 hours after drug treatment. Myotube formation was assayed in 10T1/2 cells as previously described (Constantinides et al., Nature 267:364-366, 1977). […] The ability of Zebularine to cause 10T1/2 cells to undergo the myogenic switch was therefore tested (FIG. 7).

p3 locus = assay: Ms-SNuPE quantitation of DNA methylation in 10T1/2 cells; assay type: cell-based, mouse; conditions: 0.3 μM, 24 hours, control 86
Experimental: as §2, §3
P3: 95° C. for 2 minutes, 95° C. for 1 minute, 50° C. for 50 seconds, and 72° C. for 1 minute for 40 cycles, with a final extension at 72° C. for 10 minutes.
as §4, §5

[4] = test system: DNA methylation of the am^RIP and ψ63 sequences; assay: Southern blot analysis of DNA methylation in N. crassa (Dpn II vs Sau3AI digests); assay type: cell-based, Neurospora crassa; conditions: 12 and 24 μM 5-AC; 0.33 and 3.3 μM TSA; 20, 39, 78, 160 and 310 μM Zebularine
Experimental: DNA was digested with Dpn II (D) or Sau3AI (S), fractionated by gel electrophoresis, transferred to a membrane and probed for am (FIG. 4A) or ψ63 (FIG. 4B) sequences. Dpn II and Sau3AI both recognize the sequence GATC, but Sau3AI fails to cleave if the C residue is methylated. Thus, differences between S and D lanes are indicative of DNA methylation.
The ramp symbols at the top of the figure represent increasing concentrations of drug. Drug concentrations were 12 and 24 μM 5-AC; 0.33 and 3.3 μM TSA; and 20, 39, 78, 160 and 310 μM Zebularine. The positions of selected size standards (kb) are indicated.
Southern hybridizations were performed on DNA samples (−1 μg) isolated from liquid cultures inoculated with 7×10^4 conidia/ml. DNA was digested with Dpn II (D) or Sau3AI (S), fractionated by gel electrophoresis, transferred to a nylon membrane and probed for am^RIP (FIG. 4A) or ψ63 (FIG. 4B) sequences. The restriction endonucleases Dpn II and-Sau3AI both recognize the sequence GATC, but Sau3AI fails to cleave if the C residue is methylated. Drug concentrations were […] 5-AC, 0.33 and 3.3 μM TSA, and […] Zebularine.
The positions of selected size standards (kb) and the origin (ori) are indicated. […] Differences between S and D lanes are indicative of DNA methylation.

SMILES	Toxicity (%) (decrease in plating efficiency) (T24 cells)	p16 expression (RT-PCR) [1]	decrease in plating deficiency (cytotoxicity) (10T1/2 cells [2]; 0.3 μM, 10T1/2 cells) [%]	Ave. Plating Efficiency (%) (10T1/2 cells [2]; 0.3 μM, 250 cells, stained after 14-16 days, control 22)	cell death observed (10T1/2 cells [2]; 10T1/2 cells, 0.3 μM 5-Aza-CdR, 3 μM 5-Aza-CR, 30 μM Zebularine)	Relative p16 Exon 2 De-methylation (%) (p16 exon 2)	p16 Exon 2 Methylation (%) (p16 exon 2; control 96)	p16 Promoter Methylation (%) (p16 promoter)	Muscle Formation (10T1/2 cells [3]; 0.3 μM, 24 hours treatment, scored 9-10 days later)	muscle formation (micrographs, in words) (10T1/2 cells [3]; 10T1/2 cells, approximately 9-10 days after drug treatment)	% Methylation (p3 locus)	effect on DNA methylation (Southern blot) [4]
Nc1ncn([C@H]2C[C@H](O)[C@@H](CO)O2)c(=O)n1 [5-Aza-CdR, 5-aza-2′-deoxycytidine]	75	robust expression of p16	74	5	appreciable cell death	47 +/− 1%	51 +/− 1%	52% and 52 +/− 5%	+++	formed multinucleated myotubes	54% and 54 +/− 5%	–
CC(/C=C/C(=O)NO)=C\[C@@H](C)C(=O)c1ccc(N(C)C)cc1 [TSA, trichostatin A]	–	–	–	–	–	–	–	–	–	–	–	selective inhibition of methylation
